Experimental data: US20060059579A1, “Model animals non-responsive to mycobacteria-origin lipoprotein/lipopeptide” (Japan Science and Technology Agency, priority 2002, published 2006)

How the values were obtained:
TLR1^-/- macrophages [1] = assay type: cell-based, mouse
[2] = tested on: peritoneal macrophages of wild-type mice; assay type: cell-based, mouse
TLR1^-/- macrophages [3] = assay type: cell-based, mouse; remark: listed apart in the source
TLR2^-/- macrophages = settings: Science 291, 1544, 2001; cited from earlier work
TLR2 = target: T1, TLR2 (Homo sapiens, UniProt O60603); assay: NF-κB pELAM-luciferase reporter assay in HEK 293 cells expressing TLR2; assay type: cell-based; settings: expression of TLR2, 10 ng/ml for 8 h
T1 construct: expressed in transfected cells; host or cells: HEK 293 cells, transient transfection
T1 sequence (O60603 21-784, species assumed): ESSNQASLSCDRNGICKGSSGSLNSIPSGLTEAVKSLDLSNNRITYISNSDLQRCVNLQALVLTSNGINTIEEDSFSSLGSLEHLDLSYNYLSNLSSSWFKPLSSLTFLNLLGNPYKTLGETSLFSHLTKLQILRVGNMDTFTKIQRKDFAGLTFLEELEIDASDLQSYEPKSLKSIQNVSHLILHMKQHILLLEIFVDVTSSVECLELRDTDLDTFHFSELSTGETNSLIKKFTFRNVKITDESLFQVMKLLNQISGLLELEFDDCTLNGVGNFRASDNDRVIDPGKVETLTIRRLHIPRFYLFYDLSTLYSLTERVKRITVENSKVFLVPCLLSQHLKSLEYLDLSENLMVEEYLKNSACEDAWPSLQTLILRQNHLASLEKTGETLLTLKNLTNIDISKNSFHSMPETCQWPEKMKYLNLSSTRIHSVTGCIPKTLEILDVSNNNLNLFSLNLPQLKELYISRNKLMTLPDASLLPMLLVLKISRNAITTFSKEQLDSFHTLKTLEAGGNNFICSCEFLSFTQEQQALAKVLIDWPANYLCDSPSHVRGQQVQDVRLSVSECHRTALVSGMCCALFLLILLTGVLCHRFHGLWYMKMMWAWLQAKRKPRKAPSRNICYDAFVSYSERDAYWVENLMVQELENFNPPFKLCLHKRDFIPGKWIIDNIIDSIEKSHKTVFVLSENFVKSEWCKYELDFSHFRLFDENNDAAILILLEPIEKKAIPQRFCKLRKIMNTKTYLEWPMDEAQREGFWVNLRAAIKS
T1 sequence (Q15399 25-786, species assumed, further chain): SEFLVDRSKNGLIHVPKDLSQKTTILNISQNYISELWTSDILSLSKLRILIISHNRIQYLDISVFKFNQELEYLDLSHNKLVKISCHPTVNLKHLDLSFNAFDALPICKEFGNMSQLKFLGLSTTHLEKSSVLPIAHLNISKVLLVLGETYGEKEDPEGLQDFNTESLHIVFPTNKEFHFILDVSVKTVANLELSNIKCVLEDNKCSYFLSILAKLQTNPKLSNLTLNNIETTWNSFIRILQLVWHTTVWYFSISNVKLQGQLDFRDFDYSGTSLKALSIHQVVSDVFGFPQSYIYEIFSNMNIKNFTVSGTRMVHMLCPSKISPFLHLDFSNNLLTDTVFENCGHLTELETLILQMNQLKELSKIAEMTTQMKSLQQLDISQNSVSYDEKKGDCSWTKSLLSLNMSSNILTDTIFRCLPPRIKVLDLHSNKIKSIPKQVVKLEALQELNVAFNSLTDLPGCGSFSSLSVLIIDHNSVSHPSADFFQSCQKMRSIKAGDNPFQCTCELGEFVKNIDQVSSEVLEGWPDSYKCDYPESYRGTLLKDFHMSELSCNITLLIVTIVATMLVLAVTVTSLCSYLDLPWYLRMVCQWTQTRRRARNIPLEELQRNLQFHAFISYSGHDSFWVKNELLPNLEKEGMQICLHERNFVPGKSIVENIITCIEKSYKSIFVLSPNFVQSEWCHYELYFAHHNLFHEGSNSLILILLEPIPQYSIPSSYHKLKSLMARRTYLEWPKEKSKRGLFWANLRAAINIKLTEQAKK
Description: (§1) HEK 293 cells were transformed with TLR1, TLR2 and TLR6 expression vectors, and pELAM-luciferase reporter plasmid were used together. For normalization of transfection efficiency by lipofectamine 2000 (Invitrogen), the indicated vector was used with pELAM-luciferase reporter plasmid (J. Bio. Chem. 274, 10689, 1999) and pRL-TK (Promega) to transfect transiently […] cells. 24 h after transfection, the cells were stimulated with 10 ng/ml of Pam3CSK4 for 8 h. Then, the cells were lysed, and luciferase activity was measured by using Dual-luciferase reporter assay system (Promega) according to the manufacturer's instruction.

TLR6 and TLR2 = target: T2, TLR6 and TLR2 (Homo sapiens, UniProt O60603); assay: NF-κB pELAM-luciferase reporter assay in HEK 293 cells co-expressing TLR6 and TLR2; assay type: cell-based; settings: co-expression of TLR6 and TLR2, 10 ng/ml for 8 h
T2 construct: expressed in transfected cells; host or cells: HEK 293 cells, transient transfection
T2 sequence (O60603 21-784, species assumed): as the sequence (O60603 21-784, species assumed) above
Description: as §1

TLR1 and TLR2 [4] = target: T3, TLR1 and TLR2 (Homo sapiens, UniProt O60603+Q15399); assay: Co-immunoprecipitation of HA-tagged TLR1 and Flag-tagged TLR2 in HEK293 cells; assay type: binding; parameters: expressed in transfected cells; host or cells: HEK293 cells
T3 sequence (Q15399 25-786, species assumed): as the sequence (Q15399 25-786, species assumed, further chain) above
T3 sequence (O60603 21-784, species assumed): as the sequence (O60603 21-784, species assumed) above
Description: HEK293 cells were co-transfected with 3 μg Flag-tagged TLR2, TLR4 or 6 μg HA-tagged TLR1. After 36 h, the cells were lysed in the lysis buffer containing 1.0% Nonidet P-40, 150 mM NaCl, 20 mM tris-HCl (pH 7.5), 5 mM EDTA and aprotease inhibitor cocktail tablet, Complete (Roche Diagnostics). The solution was pre-treated for 1 h with protein G-sepharose, and immunoprecipitated for 12 h by using 2 μg anti-Flag M2 antibody or 2 μg anti-HA 12 CA5 antibody. The beads were washed four times in the lysis buffer, and the immunoprecipitated proteins were eluted in SDS-PAGE sample buffer solution, separated on SDS-PAGE and transferred onto PVDF membrane. HA-tagged TLR1 was detected with anti-HA antibody (Roche Diagnostics) and HRP-tagged anti-mouse Ig antibody. Flag-tagged proteins were identified with the second antibody, HRP-conjugated anti-Flag M2 antibody. Then, the antibodies were detected by enhanced chemiluminescence system (Dupont).

TLR1 and TLR2 [5] = target: T3, TLR1 and TLR2; assay: NF-κB pELAM-luciferase reporter assay in HEK 293 cells co-expressing TLR1 and TLR2; assay type: cell-based; parameters: expressed in transfected cells; host or cells: HEK 293 cells, transient transfection; settings: co-expression of TLR1 with TLR2, 10 ng/ml for 8 h
Description: as §1

Q: For “N-lauryl-S-dilauryl gylceryl (Lau3)CSK4 [Lau3CSK4]”, which TNFα production (TLR1^-/- macrophages [1]) is on record?
A: impaired

Q: For “19 kD lipoprotein: Native 19-kD lipoprotein purified from Mycobacterium tuberculosis”, which TNFα production [2] is on record?
A: generated TNFα in a dose-dependent manner

Q: What about the TNFα production (TLR1^-/- macrophages [1]) of the same substance?
A: impaired

Q: And the IL-6 production (TLR1^-/- macrophages [3])?
A: lower in TLR1^-/- macrophages compared with that of wild-type cells

Q: What about the Cytokine production (TLR2^-/- macrophages) of the same substance?
A: inhibited

Q: With MALP-2 as the substance, how does the TNFα production (TLR1^-/- macrophages [1]) read?
A: responded normally

Q: Which TNFα production (TLR1^-/- macrophages [1]) does the source give for “N-palmitoyl-S-dilauryl glyceryl (N-Pam-S-Lau2)CSK4 [Lau2N-PamCSK4]” here?
A: considerably impaired

Q: For “N-myristyl-S-dimyristyl glyceryl (Myr3) CSK4 [Myr3CSK4]”, which TNFα production (TLR1^-/- macrophages [1]) is on record?
A: impaired

Q: Which TNFα production (TLR1^-/- macrophages [1]) does the source give for “N-palmitoyl-S-dipalmitoyl glyceryl (Pam3) CSK4 [Pam3CSK4]” here?
A: significantly impaired

Q: And the “NF-κB activation (luciferase activity)” value (TLR2)?
A: conferred the NF-κB activation

Q: And the “NF-κB activation (luciferase activity)” value (TLR6 and TLR2)?
A: did not augment the NF-κB activation

Q: What about the “extent of association between TLR1 and TLR2 on stimulation” value (TLR1 and TLR2 [4]) of the same substance?
A: did not affect

Q: What about the “NF-κB activation (luciferase activity)” value (TLR1 and TLR2 [5]) of the same substance?
A: significantly enhanced the activation
